This is an account of results in PubChem BioAssay AID1845217 (Molecular Pharmacology Branch, DTP, NCI, 2023).

By IC50 is commonly meant the concentration that gives 50% inhibition. A word on the viability, T/C: it is the ratio of treated to control.

This experiment relates to VA-ES-BJ tumor spheroid viability. Kind of experiment: Anticancer human tumor VA-ES-BJ cell line growth inhibition.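 As to IC50: spheroids exposed to compounds for seven days.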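 As to viability, T/C: spheroids exposed to compounds for seven days; percent of DMSO vehicle control viability so 100% = untreated growth.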 As to conditions: spheroids with HUVEC and MSC; for viability, T/C: stronger effect = lower value. In a few lines:
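Complex tumor spheroids combined malignant cells with endothelial cells and mesenchymal stem cells. DNA-damaging drugs and DNA repair inhibitors were tested alone and in combination, at half-log dilutions down from clinical Cmax (top 10 microM if Cmax unknown), 0.25% DMSO final.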

[1] abbreviates: compound alone, run of 12/12/2019.

Several values for one entry are separate records, joined by “and”; a condition that tells them apart may be missing. Equal values may be shown once. Activity calls are given as the source filed them. The calls were made as follows: active = viability on the fitted dose curve at most 10% of control; inactive = the rest. Bounds are passed on as bounds.

Take `COc1cc(C)[nH]c(=O)c1CN1CCc2c(Cl)cc(C(OC)C3COC3)c(Cl)c2C1=O` (stereo unspecified) + Cn1nnc2c(C(N)=O)ncn2c1=O: the half-inhibitory concentration (IC50) (curve of first compound, second compound 1 µM) came to 9.57 µM; the 50% inhibitory concentration (IC50) (curve of first compound, second compound 3.16 µM) is greater than 10 µM; the IC50 (curve of first compound, second compound 10 µM) amounted to 3.26 µM; the IC50 (curve of first compound, second compound 31.6 µM) was 3.36 µM; the IC50 (curve of first compound, second compound 100 µM) turned out to be 2.22 µM. In addition, the viability, T/C reads like this: (second compound 1 µM, first compound 0.0316 µM) 94%; (second compound 1 µM, first compound 0.1 µM) 88.8%; (second compound 1 µM, first compound 0.316 µM) 72.2%; (second compound 1 µM, first compound 1 µM) 61.4%; (second compound 1 µM, first compound 3.16 µM) 54%; (second compound 1 µM, first compound 10 µM) 49%. For the same compound, the viability, T/C runs as follows: (second compound 3.16 µM, first compound 0.0316 µM) 97.6%; (second compound 3.16 µM, first compound 0.1 µM) 85.8%; (second compound 3.16 µM, first compound 0.316 µM) 70.8%; (second compound 3.16 µM, first compound 1 µM) 60.3%; (second compound 3.16 µM, first compound 3.16 µM) 56.1%; (second compound 3.16 µM, first compound 10 µM) 49.5%. Also, the viability, T/C is 89% (second compound 10 µM, first compound 0.0316 µM); 87.2% (second compound 10 µM, first compound 0.1 µM); 71.6% (second compound 10 µM, first compound 0.316 µM); 58.4% (second compound 10 µM, first compound 1 µM); 52.4% (second compound 10 µM, first compound 3.16 µM); 45.2% (second compound 10 µM, first compound 10 µM). In addition, the viability, T/C (second compound 31.6 µM, first compound 0.0316 µM) was 95.5%; the viability, T/C (second compound 31.6 µM, first compound 0.1 µM) was 85.4%; the viability, T/C (second compound 31.6 µM, first compound 0.316 µM) was 68.9%; the viability, T/C (second compound 31.6 µM, first compound 1 µM) is 56.8%; the viability, T/C (second compound 31.6 µM, first compound 3.16 µM) is 51.9%; the viability, T/C (second compound 31.6 µM, first compound 10 µM) is 46%. Besides, the viability, T/C (second compound 100 µM, first compound 0.0316 µM) is 106%; the viability, T/C (second compound 100 µM, first compound 0.1 µM) is 90.2%; the viability, T/C (second compound 100 µM, first compound 0.316 µM) is 75.1%; the viability, T/C (second compound 100 µM, first compound 1 µM) was 53.8%; the viability, T/C (second compound 100 µM, first compound 3.16 µM) was 48.7%; the viability, T/C (second compound 100 µM, first compound 10 µM) is 42.7%.
Consider `COc1cc2c(cc1O)CCNC21CSC2c3c(OC(C)=O)c(C)c4c(c3C(COC1=O)N1C(O)C3Cc5cc(C)c(OC)c(O)c5C(C21)N3C)OCO4` (stereo unspecified), for which the viability, T/C was 2.96% [middle of 10 runs] (compound 0.000949 µM) and 1.18% [middle of 9 runs] (compound 0.003 µM). Moreover, the half-maximal inhibitory concentration (IC50) under setting [1] was 0.256 nM [middle of 10 runs].
On to `CC[C@@]1(O)C(=O)OCc2c1cc1n(c2=O)Cc2cc3c(CN(C)C)c(O)ccc3nc2-1`, for which the viability, T/C runs as follows: (compound 0.003 µM) 94% [middle of 10 runs]; (compound 0.0949 µM) 7.65% [middle of 10 runs]; (compound 0.3 µM) 5.65% [middle of 10 runs]. The IC50 reads like this: (compound alone, run of 12/02/2019) 21.8 nM [middle of 5 runs]; under setting [1], 28.5 nM [middle of 5 runs].
Take `Cc1cc(C)c(CNC(=O)c2cc(-c3ccc(CN4CCOCC4)cc3)cc3c2cnn3C2CCCC2)c(=O)[nH]1` + CC[C@@]1(O)C(=O)OCc2c1cc1n(c2=O)Cc2cc3c(CN(C)C)c(O)ccc3nc2-1: the half-maximal inhibitory concentration (IC50) (curve of first compound, second compound 0.003 µM) was greater than 10 µM; the IC50 (curve of first compound, second compound 0.00949 µM) was greater than 10 µM; the half-maximal inhibitory concentration (IC50) (curve of first compound, second compound 0.03 µM) is less than 0.0316 µM; the concentration for half-maximal inhibition (IC50) (curve of first compound, second compound 0.0949 µM) is less than 0.0316 µM; the IC50 (curve of first compound, second compound 0.3 µM) was less than 0.0316 µM. For the same compound, the viability, T/C runs as follows: (second compound 0.003 µM, first compound 0.0316 µM) 92.3%; (second compound 0.003 µM, first compound 0.1 µM) 98%; (second compound 0.003 µM, first compound 0.316 µM) 95%; (second compound 0.003 µM, first compound 1 µM) 98.9%; (second compound 0.003 µM, first compound 3.16 µM) 103%; (second compound 0.003 µM, first compound 10 µM) 94.8%. The viability, T/C is 74.2% (second compound 0.00949 µM, first compound 0.0316 µM); 84% (second compound 0.00949 µM, first compound 0.1 µM); 93.5% (second compound 0.00949 µM, first compound 0.316 µM); 90% (second compound 0.00949 µM, first compound 1 µM); 86.5% (second compound 0.00949 µM, first compound 3.16 µM); 62.1% (second compound 0.00949 µM, first compound 10 µM). Further, the viability, T/C by setting is: (second compound 0.03 µM, first compound 0.0316 µM) 37.3%; (second compound 0.03 µM, first compound 0.1 µM) 39%; (second compound 0.03 µM, first compound 0.316 µM) 37.3%; (second compound 0.03 µM, first compound 1 µM) 36.1%; (second compound 0.03 µM, first compound 3.16 µM) 38.2%; (second compound 0.03 µM, first compound 10 µM) 44%. The viability, T/C (second compound 0.0949 µM, first compound 0.0316 µM) is 5.21%; the viability, T/C (second compound 0.0949 µM, first compound 0.1 µM) is 5.14%; the viability, T/C (second compound 0.0949 µM, first compound 0.316 µM) is 5.02%; the viability, T/C (second compound 0.0949 µM, first compound 1 µM) was 5.85%; the viability, T/C (second compound 0.0949 µM, first compound 3.16 µM) is 5.97%; the viability, T/C (second compound 0.0949 µM, first compound 10 µM) was 6.03%. The viability, T/C reads like this: (second compound 0.3 µM, first compound 0.0316 µM) 5.75%; (second compound 0.3 µM, first compound 0.1 µM) 5.52%; (second compound 0.3 µM, first compound 0.316 µM) 4.6%; (second compound 0.3 µM, first compound 1 µM) 5.28%; (second compound 0.3 µM, first compound 3.16 µM) 5.46%; (second compound 0.3 µM, first compound 10 µM) 5.71%.
Take `COc1cc(C)[nH]c(=O)c1CN1CCc2c(Cl)cc(C(OC)C3COC3)c(Cl)c2C1=O` (stereo unspecified): the viability, T/C (compound 0.0316 µM) is 90.1% and 94.4%; the viability, T/C (compound 0.1 µM) is 60.6% and 79.6% and 86.1%; the viability, T/C (compound 0.316 µM) is 62.8% and 67% and 69.9%; the viability, T/C (compound 1 µM) is 50.1% and 56.3% and 63.1%; the viability, T/C (compound 3.16 µM) is 44.1% and 54.4% and 58.9%; the viability, T/C (compound 10 µM) was 41.7% and 49.4% and 52.7%. In addition, under “compound 0.0316 µM”, the result was inactive. Besides, the IC50 (curve of compound) was 1.55 µM and > 10 µM.
